Source: US4356165A, “Bupropion radioimmunoassay, and kit” (Burroughs Wellcome Co., priority 1980, dated 1982)

System: antisera raised by presenting a suitable bupropion variant-carrier material conjugate
Test: Competition of bupropion with radiolabeled bupropion or competitor for binding to antisera
Description: Samples of six standard solutions of bupropion in blank plasma having concentrations of 0.39 to 50 ng/ml) are pipetted (0.1 ml each) in duplicate into 12×75 mm plastic tubes. Duplicate non-specific binding (no antibody) and maximum binding tubes (no unlabeled bupropion) receive 0.1 ml blank plasma. Spiked plasma controls at several concentrations of (e.g., 1.0, 10.0, and 100 ng/ml) and plasma samples for assay (diluted into the standard range with blank plasma if necessary) are assayed in duplicate. After being placed in an ice bath, all tubes receive (in order) 0.2 ml ^3 H bupropion (416 pg. containing approximately 10^4 cpm) and 0.7 ml anti-bupropion serum (raised to a ring-functionalized immunogen according to the present invention) (at pre-determined dilutions such that approximately 40% of the ^3 H bupropion added is bound), both in assay buffer (0.05 M phosphate-bufferedisotonic saline, containing 0.01 M EDTA and 0.1% gelatin, pH 7.0). […] The supernatants, containing antibody-bound ^3 H bupropion are carefully decanted into liquid scintillation cocktail for quantitation of ^3 H. After counts (minus average non-specific binding cpm) are expressed as percentages of average maximum binding cpm, bupropion concentrations in plasma samples and spiked controls are read from a standard curve (log concentration vs percent average maximum binding).

With `CC(NC(C)(C)C)C(=O)c1cccc(Cl)c1` (racemic) [bupropion, (±)-2-tert-butylamino-3'-chloropropiophenone] the “competition with radiolabeled bupropion or radiolabeled competitor for binding to antisera” value was “successfully compete”.
